assay: recombinant barcode read abundance after kanamycin selection (control-corrected) (log10(CPM+1)); higher = more efficient recombination; sequences stand for … in AGTGCAGAGAAAATCGGCCAGTTTTCTCTGCCTGCAGTCCGCATGCCGT…AGATTTATGCAGCGGACTGCCTTTCTCCCAAAGTGATAAACCGGACAGTATCATGGACCGGTTTTCCCGGTAATCCGTATTTGCAAGGTTGGTTTCACT; site = the 11-nt target
Description: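 Pooled E. coli target-specificity screen for the IS621 bridge recombinase. Each library plasmid pairs an 11-nt target (CT core) with a bridge RNA whose target-binding loop (9-nt LTG + 4-nt RTG) is reprogrammed; the rest of the 177-nt WT IS621 bridge RNA scaffold is fixed. The plasmid is co-electroporated with a WT donor plasmid; recombinase is induced with 0.1 mM IPTG and recombinants are selected on kanamycin. Recombinant barcodes are sequenced, converted to CPM, averaged over two biological replicates and corrected by the unselected control CPM. Molecule = full bridge RNA written as DNA: LTG = specificity nt 1-9, RTG = reverse complement of specificity nt 8-11, in the WT scaffold.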
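Also: IS621 recombinase and bridge RNA in Escherichia coli cells.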

Going from “ATGCGTTCTTGGGTTCTAACCTGTTGCCT (site ATGCGTTCTAG)” to “TCGCGTCCTTGGGTTCTAACCTGTTGCAG (site TCACGTCCTCT)”, the “recombinant barcode read abundance (log10)” value falls from 1.73 to 0.231.

First: AAGGACGCTTGGGTTCTAACCTGTTGCCT (site AAGGGCGCTAG)
Second: CGACTGCCTTGGGTTCTAACCTGTTGCGT (site CGACTGCCTAC)
The “recombinant barcode read abundance (log10)” value of the first is lower: 0.309 for the first, 2.09 for the second.

“TATTGTCCTTGGGTTCTAACCTGTTGCCT (site TATTGTCCTAG)” and “TCGTTCGCTTGGGTTCTAACCTGTTGCCG (site TCGTTCGCTCG)” are within 0.2 log units of each other in “recombinant barcode read abundance (log10)” value: 0.124 for the first, 0.0881 for the second.

“TCTAAACCTTGGGTTCTAACCTGTTGCAT (site TCTAAGCCTAT)” and “TGCGCAACTTGGGTTCTAACCTGTTGCCT (site TGCGCAACTAG)” are within 0.2 log units of each other in “recombinant barcode read abundance (log10)” value: 0.0795 for the first, 0.0344 for the second.

“GGTCTGCCTTGGGTTCTAACCTGTTGCCT (site TGTCTGCCTAG)” and “GTTTCGGCTTGGGTTCTAACCTGTTGCCT (site GTTTCGGCTAG)” are within 0.2 log units of each other in “recombinant barcode read abundance (log10)” value: 0.397 for the first, 0.342 for the second.

“CTATGTGCTTGGGTTCTAACCTGTTGCTT (site CTATGTGCTAC)” and “ACGTCTCCTTGGGTTCTAACCTGTTGCTG (site ACGCCTCCTCA)” are within 0.2 log units of each other in “recombinant barcode read abundance (log10)” value: 0.37 for the first, 0.175 for the second.

“TCGCATTCTTGGGTTCTAACCTGTTGCAT (site TCGCATTCTAT)” and “TACCTGACTTGGGTTCTAACCTGTTGCCT (site TACCAGACTAG)” are within 0.2 log units of each other in “recombinant barcode read abundance (log10)” value: 0.159 for the first, 0.0067 for the second.

Going from “TACATCCCTTGGGTTCTAACCTGTTGCCA (site TACATCCCTCG)” to “AGACCCTCTTGGGTTCTAACCTGTTGCCT (site TGACCCTCTAG)”, the “recombinant barcode read abundance (log10)” value rises from 0.0234 to 1.3.

Compared with “GCCATACCTTGGGTTCTAACCTGTTGCCT (site GCCAGACCTAG)”, “AGCCACCCTTGGGTTCTAACCTGTTGCCT (site AGCCACTCTAG)” is higher in “recombinant barcode read abundance (log10)” value: 0.194 for the first, 0.522 for the second.

Going from “GTCCTACCTTGGGTTCTAACCTGTTGCTA (site GTCCTACCTTA)” to “ACATGACCTTGGGTTCTAACCTGTTGCTT (site ATATGAGCTAA)”, the “recombinant barcode read abundance (log10)” value falls from 1.63 to 0.0302.

“AGAGTAGCTTGGGTTCTAACCTGTTGCAC (site GTTTATACTTG)” and “GGGATCCCTTGGGTTCTAACCTGTTGCGG (site CTCGAATCTAA)” are within 0.2 log units of each other in “recombinant barcode read abundance (log10)” value: 0.0243 for the first, 0.024 for the second.

Compared with “TAAGTGTCTTGGGTTCTAACCTGTTGCCT (site TATGTGTCTAG)”, “CGTCATCCTTGGGTTCTAACCTGTTGCCT (site CGTCAGCCTAG)” is lower in “recombinant barcode read abundance (log10)” value: 1.03 for the first, 0.112 for the second.

Compared with “GGGTACCCTTGGGTTCTAACCTGTTGCCT (site GCGTACCCTAG)”, “CTTGGAGCTTGGGTTCTAACCTGTTGCCT (site CTTGGAGCTAG)” is higher in “recombinant barcode read abundance (log10)” value: 0.126 for the first, 1.61 for the second.

“AGGGAGACTTGGGTTCTAACCTGTTGCTT (site AGGGATACTAA)” and “GGGCAGTCTTGGGTTCTAACCTGTTGCCG (site GGGGCGTCTCG)” are within 0.2 log units of each other in “recombinant barcode read abundance (log10)” value: 0.25 for the first, 0.14 for the second.

“CGTGGGGCTTGGGTTCTAACCTGTTGCCT (site CGTGGGGCTAG)” and “TGACACACTTGGGTTCTAACCTGTTGCTG (site TGAGACACTCA)” are within 0.2 log units of each other in “recombinant barcode read abundance (log10)” value: 0.156 for the first, 0.127 for the second.

Going from “CGCCGCCCTTGGGTTCTAACCTGTTGCCT (site AGCCGCCCTAT)” to “CACTTAACTTGGGTTCTAACCTGTTGCCA (site CACTTAACTTG)”, the “recombinant barcode read abundance (log10)” value falls from 0.447 to 0.0764.

“CGAGCAGCTTGGGTTCTAACCTGTTGCCT (site CGCGCAGCTAG)” and “CCTTCCTCTTGGGTTCTAACCTGTTGCCT (site CGTTCCTCTAG)” are within 0.2 log units of each other in “recombinant barcode read abundance (log10)” value: 0.152 for the first, 0.0856 for the second.

Compared with “AGGATATCTTGGGTTCTAACCTGTTGCCT (site AGGATATCTAG)”, “TATTAACCTTGGGTTCTAACCTGTTGCCT (site TATTAGCCTAG)” is lower in “recombinant barcode read abundance (log10)” value: 0.559 for the first, 0.0897 for the second.

Compared with “TCCCAGTCTTGGGTTCTAACCTGTTGCCT (site TCCCAGTCTAT)”, “GAGTTCACTTGGGTTCTAACCTGTTGCCT (site GGGTTCACTCG)” is lower in “recombinant barcode read abundance (log10)” value: 0.594 for the first, 0.0995 for the second.

First: TACTTGCCTTGGGTTCTAACCTGTTGCCT (site TATTTGCCTAG)
Second: GTCGATCCTTGGGTTCTAACCTGTTGCCT (site GTCGATCCTAG)
The “recombinant barcode read abundance (log10)” value of the first is lower: 0.182 for the first, 1.68 for the second.

Compared with “ATCAGGTCTTGGGTTCTAACCTGTTGCCT (site AACAGGTCTAG)”, “CCGTCGACTTGGGTTCTAACCTGTTGCCT (site ACGTCCACTAG)” is lower in “recombinant barcode read abundance (log10)” value: 0.299 for the first, 0.0141 for the second.

Compared with “TTGGGGTCTTGGGTTCTAACCTGTTGCCT (site TTGGGGTCTAG)”, “AAGCAATCTTGGGTTCTAACCTGTTGCCT (site AAGCAGTCTAG)” is lower in “recombinant barcode read abundance (log10)” value: 1.65 for the first, 0.0406 for the second.

Compared with “TAGTATCCTTGGGTTCTAACCTGTTGCGT (site TAGTGTCCTAC)”, “GTACGTCCTTGGGTTCTAACCTGTTGCGT (site GTACGTCCTAC)” is higher in “recombinant barcode read abundance (log10)” value: 0.0306 for the first, 2.36 for the second.

First: ATCGGAGCTTGGGTTCTAACCTGTTGCTG (site ATCGGAGCTCA)
Second: AAGAACACTTGGGTTCTAACCTGTTGCCT (site AAGAACACTAG)
The “recombinant barcode read abundance (log10)” value of the first is lower: 0.991 for the first, 2.06 for the second.

Going from “TAATGACCTTGGGTTCTAACCTGTTGCAT (site TAATGACCTAT)” to “CTAAGCCCTTGGGTTCTAACCTGTTGCGG (site CTAAGCCCTCC)”, the “recombinant barcode read abundance (log10)” value rises from 1.67 to 1.99.

First: GAGCGTCCTTGGGTTCTAACCTGTTGCCG (site GAGCGTCCTCG)
Second: ACGCATACTTGGGTTCTAACCTGTTGCCT (site ACACATACTAG)
The “recombinant barcode read abundance (log10)” value of the first is higher: 0.739 for the first, 0.196 for the second.

Compared with “TTAGTCCCTTGGGTTCTAACCTGTTGCCG (site CTAGTCCCTCG)”, “TCTTGTCCTTGGGTTCTAACCTGTTGCGC (site TCTTGTCCTGC)” is lower in “recombinant barcode read abundance (log10)” value: 1.09 for the first, 0.385 for the second.

“CGGGCAGCTTGGGTTCTAACCTGTTGCCT (site CGTGCAGCTAG)” and “TGGATCACTTGGGTTCTAACCTGTTGCCT (site TGGAACACTAG)” are within 0.2 log units of each other in “recombinant barcode read abundance (log10)” value: 0.156 for the first, 0.0491 for the second.

Compared with “TAGTCCACTTGGGTTCTAACCTGTTGCTA (site TAGTCCACTTA)”, “GGTGCGTCTTGGGTTCTAACCTGTTGCCT (site CGTGCGTCTAG)” is lower in “recombinant barcode read abundance (log10)” value: 1.15 for the first, 0.132 for the second.

First: GCCTCGTCTTGGGTTCTAACCTGTTGCCT (site GCCTCGTCTAG)
Second: TGGAGTCCTTGGGTTCTAACCTGTTGCTT (site TGGAGCCCTAA)
The “recombinant barcode read abundance (log10)” value of the first is higher: 0.68 for the first, 0.276 for the second.

Going from “AGAAGTCCTTGGGTTCTAACCTGTTGCGG (site AGAAGTCCTCA)” to “AGAGAGTCTTGGGTTCTAACCTGTTGCTT (site AGAGAGTCTAA)”, the “recombinant barcode read abundance (log10)” value rises from 0.0978 to 1.99.

Going from “CGGCTATCTTGGGTTCTAACCTGTTGCCT (site TGGCTATCTAG)” to “AGTTAACCTTGGGTTCTAACCTGTTGCGG (site AGTTAACCTCC)”, the “recombinant barcode read abundance (log10)” value rises from 0.0495 to 1.97.

Going from “GATGTACCTTGGGTTCTAACCTGTTGCCT (site CATGTACCTAG)” to “CAGCACCCTTGGGTTCTAACCTGTTGCGG (site CGGTACCCTCC)”, the “recombinant barcode read abundance (log10)” value falls from 0.43 to 0.13.

“GGCAGTTCTTGGGTTCTAACCTGTTGCTT (site GGCAGTTCTAA)” and “CTCTTAGCTTGGGTTCTAACCTGTTGCAA (site CTCTTAGCTTT)” are within 0.2 log units of each other in “recombinant barcode read abundance (log10)” value: 0.0537 for the first, 0.0457 for the second.

First: CTGGACCCTTGGGTTCTAACCTGTTGCCG (site CTGGACCCTCG)
Second: GAGCGTCCTTGGGTTCTAACCTGTTGCAG (site GAGCGTCCTCT)
The “recombinant barcode read abundance (log10)” value of the first is higher: 1.91 for the first, 1.26 for the second.

“TAGAAGACTTGGGTTCTAACCTGTTGCTG (site TAGAAGACTAA)” and “GAAAACACTTGGGTTCTAACCTGTTGCCT (site GAAGAGACTAG)” are within 0.2 log units of each other in “recombinant barcode read abundance (log10)” value: 0.128 for the first, 0.0433 for the second.

Going from “CCAGCAGCTTGGGTTCTAACCTGTTGCCT (site CCAGCAGCTAG)” to “GACACGTCTTGGGTTCTAACCTGTTGCCT (site GACACCTCTAA)”, the “recombinant barcode read abundance (log10)” value falls from 0.675 to 0.

“TACATTCCTTGGGTTCTAACCTGTTGCCT (site TACATTCCTAG)” and “TAGCCGTCTTGGGTTCTAACCTGTTGCAC (site TAGACGACTGT)” are within 0.2 log units of each other in “recombinant barcode read abundance (log10)” value: 0.156 for the first, 0.0911 for the second.

Compared with “CTAATGCCTTGGGTTCTAACCTGTTGCAT (site CTAATGCCTAT)”, “GAGCCGGCTTGGGTTCTAACCTGTTGCTT (site GAGCCGGCTAA)” is higher in “recombinant barcode read abundance (log10)” value: 0.175 for the first, 1.32 for the second.

Compared with “GTAAGAACTTGGGTTCTAACCTGTTGCAG (site GTAAGAACTCT)”, “GTTTGGCCTTGGGTTCTAACCTGTTGCTT (site GTTTGTCCTAA)” is lower in “recombinant barcode read abundance (log10)” value: 1.78 for the first, 0.167 for the second.

“CCTAATGCTTGGGTTCTAACCTGTTGCCT (site CCTAATGCTAG)” and “TATTAGCCTTGGGTTCTAACCTGTTGCCT (site TATTAGCCTAG)” are within 0.2 log units of each other in “recombinant barcode read abundance (log10)” value: 0.0345 for the first, 0.123 for the second.
